Patent US11717508B2, “Compounds, compositions, and methods for inhibiting bacterial growth” (priority 2016, dated 2023)
Where two headings read alike, the source gives them in different places.

Columns and labels:
[1] = test system: CDC1551(hspX′:GFP) reporter; experiment: microbe, parasite or virus in culture; format: cell-based, Mycobacterium tuberculosis; settings: Mycobacterium tuberculosis, 6 days of treatment
Mtb = experiment: microbe, parasite or virus in culture; format: cell-based; settings: Mycobacterium tuberculosis; 6 days, optical density; unit given as M; read-out: growth inhibition EC50
[2] = test system: DosR regulon genes (dosR, hspX and tgs1); experiment: NO and vitamin C sensitivity assays (RT-PCR); format: cell-based, Mycobacterium tuberculosis; settings: for induction of dosR / induction of hspX / induction of tgs1: 2 h
Mtb Erdman [3] = settings: 1 μM and 5 μM INH, ten days post INH treatment
Mtb Erdman [4] = experiment: microbe, parasite or virus in culture; settings: Mycobacterium tuberculosis, 240 h, read-out: viability, INH alone
[5] = read-out: EC50 of inhibition of CDC1551(hspX′:GFP) reporter (dosR-dependent GFP) fluorescence

With `O=C(Nc1ccno1)Nc1ccc(Cl)cc1Cl` [HC106A, 1-(2,4-dichlorophenyl)-3-(1,2-oxazol-5-yl)urea] the EC50 [1, 5] was 6.9 µM and the EC50 (Mtb) was > 80 µM.
For `C[C@H]1[C@@H](O)O[C@@H]2O[C@@]3(C)CC[C@H]4[C@H](C)CC[C@@H]1[C@@]24OO3` [DHA, dihydroartemisinin, reference compound], the “reduction of magnitude of induction of transcripts in response to DETA-NONOate vs DMSO treatment” value ([2]; 80 μM pretreatment 24 h) was ~2 fold.
In the case of `CCCS(=O)(=O)N1CCN(Cc2ccc3c(c2)c2ccccc2n3CC)CC1` [HC105A, 9-ethyl-3-[(4-propylsulfonylpiperazin-1-yl)methyl]carbazole; oxalic acid], the EC50 [1, 5] is reported as 12.7 µM and the EC50 (Mtb) is reported as > 80 µM.
In the case of `CN(C)CCCN1C(=O)c2cccc3c(Br)ccc(c23)C1=O` [HC104A, 6-bromo-2-[3-(dimethylamino)propyl]benzo[de]isoquinoline-1,3-dione], the EC50 ([1]; unit given as M, read-out: EC50 of inhibition of dosR-dependent GFP fluorescence) is reported as 2.8 µM and the EC50 (Mtb) is reported as > 80 µM.
In the case of `NNC(=O)c1ccncc1` [INH, isoniazid, reference compound], the “viability, INH alone” value (Mtb Erdman [3]) is reported as ~100% and the viability at 25 µM (Mtb Erdman [4]) is reported as ~75%.
With `O=C1O[C@H]([C@@H](O)CO)C(O)=C1O` [vitamin C, reference compound] the “induction of dosR” value ([2]; 2 mM vitamin C) was 4 fold, the “induction of hspX” value ([2]; 2 mM vitamin C) was 14 fold and the “induction of tgs1” value ([2]; 2 mM vitamin C) was 52 fold.
For `[N]=O` [NO, reference compound], the “induction of dosR” value ([2]; NO (50 μM DETA-NONOate)) was 491 fold, the “induction of hspX” value ([2]; NO (50 μM DETA-NONOate)) was 373 fold and the “induction of tgs1” value ([2]; NO (50 μM DETA-NONOate)) was 47 fold.
